Paper PMC6400181, “Calixarene-mediated assembly of a small antifungal protein” (IUCrJ, 2019)

Assays:
[1] = system: cytochrome c; parameters: method as in Rennie et al., 2017; details: relative to sclx4, ref Rennie et al., 2017; cited from earlier work
[2] = target: PAF (Penicillium antifungal protein) (Penicillium chrysogenum, UniProt Q01701); assay: Isothermal titration calorimetry of PAF–sclxn complexation; assay type: binding; details: ITC, median (2.5% quantile, 97.5% quantile)
Protocol: PAF samples were dissolved in 10 mM sodium phosphate pH 6.0. The same buffer was used to dilute stocks of sclx4 (7.1 mM, PAF 0.5 mM), sclx6 (3.6 mM, PAF 0.5 mM) and sclx8 (2.5 mM, PAF 0.3 mM) to the required concentration. Samples were degassed prior to the titration. Measurements were made at 25°C using a Microcal ITC-200 instrument. Titrations were performed in duplicate with similar trends between each replicate. A single replicate from each calixarene was used for model fitting. Separate titrations of each calixarene into buffer confirmed that the heats of dilution were small, exothermic and approximately constant.
NITPIC (Keller et al., 2012[▸]) was used for baseline correction and integration of the thermograms. Pytc (Duvvuri et al., 2018[▸]) was used to perform model fitting and parameter estimation. The system of equations relating the independent variables of the model (total concentrations) to the experimental observations (heat generated during injections) for the single-site and bidentate-ligand models are as follows.
Single-site model, [drawing 1] [drawing 2] [drawing 3] where [P T]i is the total cell concentration of protein at the ith injection (independent variable), [L T]i is the total cell concentration of ligand at the ith injection (independent variable), K 1 is the equilibrium association constant (fit parameter), ΔH is the enthalpy (fit parameter) associated with K, V cell is the volume of the cell, vi is the volume of the ith injection, qi is the heat generated from the ith injection (dependent variable) and q dil is the heat of dilution (fit parameter, assumed to be constant)
Bidentate-ligand model, [drawing 4] [drawing 5] [drawing 6] where K 1 and K 2 are the microscopic equilibrium association constants (fit parameters), ΔH 1 and ΔH 2 are the enthalpies (fit parameters) associated with K 1 and K 2, respectively
The expressions for mass balance of the protein and ligand can be represented by equations (1) or (4). Equation (2) or (5) can be used to define the equilibrium constants. For the bidentate ligand model, equation (5) was solved numerically (the Levenberg–Marquardt algorithm) to yield the free-protein ([P]i) and free-ligand ([L]i) concentrations. The free concentrations were used to compute the concentrations of the other states via the equilibrium equations. The heat generated from a given injection was determined using either equations (3) or (6). Parameters were constrained to physically reasonable bounds (e.g. K 1 and K 2 values between 10^2 and 10^10 M ^−1) and best-fits were obtained by maximum likelihood starting from a range of initial estimates. Parameter errors and correlations were estimated using a Bayesian approach (Markov chain Monte Carlo simulations). The error for each integrated heat was determined using NITPIC (Keller et al., 2012[▸]).
Isothermal titration calorimetry was used to characterize the PAF–sclxn binding affinities and stoichiometries (Fig. 7 ▸). The data were fitted to a single-site or a bidentate-ligand model. The latter model describes a bidentate ligand that can bind two protein molecules and was necessary to describe the obviously biphasic data for sclx8. The choice of this model is supported by the observation of a PAF–sclx8–PAF dimer in the crystal structure, and by the spectral broadening in the NMR experiments. All of the fit parameters were well determined by the data (Table 1 ▸), with parameter errors assessed by Bayesian methods (Patil et al., 2010[▸]).

[3] = single-site model, 10 mM sodium phosphate pH 6.0, 25°C
[4] = bidentate-ligand model, binding the first molecule of PAF (K1), pH 6.0, 25°C
[5] = bidentate-ligand model, binding the second molecule of PAF (K2), pH 6.0, 25°C
[6] = bidentate-ligand model, first molecule of PAF (ΔH1), pH 6.0, 25°C
[7] = bidentate-ligand model, first molecule of PAF, pH 6.0, 25°C
[8] = bidentate-ligand model, second molecule of PAF (ΔH2), pH 6.0, 25°C
[9] = bidentate-ligand model, second molecule of PAF, pH 6.0, 25°C

Chain of PAF (Penicillium antifungal protein) (Q01701 entry or part of it): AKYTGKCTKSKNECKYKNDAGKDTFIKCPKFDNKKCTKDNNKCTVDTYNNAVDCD

Kd [2, 3] | TΔS [2, 3] | ΔH [2, 3] | Kd [2, 4] | Kd [2, 5] | ΔH [2, 6] | TΔS [2, 7] | ΔH [2, 8] | TΔS [2, 9] | SMILES | increase in affinity (with respect to sclx4) [1]
 |  |  |  |  |  |  |  |  | O=P(O)(O)c1cc2c(O)c(c1)Cc1cc(P(=O)(O)O)cc(c1O)Cc1cc(P(=O)(O)O)cc(c1O)Cc1cc(P(=O)(O)O)cc(c1O)Cc1cc(P(=O)(O)O)cc(c1O)Cc1cc(P(=O)(O)O)cc(c1O)C2 [pclx6, phosphonato-calix[6]arene] | approximately tenfold
107 µM | −5.6 (0.2, 0.2) kJ mol^−1 | −16.9 (0.1, 0.1) kJ mol^−1 |  |  |  |  |  |  | O=S(=O)(O)c1cc2c(O)c(c1)Cc1cc(S(=O)(=O)O)cc(c1O)Cc1cc(S(=O)(=O)O)cc(c1O)Cc1cc(S(=O)(=O)O)cc(c1O)C2 [sclx4] | 
15.4 µM | −0.7 (0.2, 0.2) kJ mol^−1 | −28.2 (0.2, 0.1) kJ mol^−1 | 47.8 µM | 45.8 µM | −9.2 (0.1, 0.2) kJ mol^−1 | −15.4 (0.4, 0.3) kJ mol^−1 | −20.1 (0.4, 0.4) kJ mol^−1 | −4.6 (0.6, 0.6) kJ mol^−1 | O=S(=O)(O)c1cc2c(O)c(c1)Cc1cc(S(=O)(=O)O)cc(c1O)Cc1cc(S(=O)(=O)O)cc(c1O)Cc1cc(S(=O)(=O)O)cc(c1O)Cc1cc(S(=O)(=O)O)cc(c1O)Cc1cc(S(=O)(=O)O)cc(c1O)C2 [sclx6] | 
 |  |  | 10.6 µM | 33.5 µM | −3.5 (0.3, 0.3) kJ mol^−1 | −24.8 (0.3, 0.3) kJ mol^−1 | −36.0 (1.7, 1.4) kJ mol^−1 | 10.5 (1.8, 2.1) kJ mol^−1 | O=S(=O)(O)c1cc2c(O)c(c1)Cc1cc(S(=O)(=O)O)cc(c1O)Cc1cc(S(=O)(=O)O)cc(c1O)Cc1cc(S(=O)(=O)O)cc(c1O)Cc1cc(S(=O)(=O)O)cc(c1O)Cc1cc(S(=O)(=O)O)cc(c1O)Cc1cc(S(=O)(=O)O)cc(c1O)Cc1cc(S(=O)(=O)O)cc(c1O)C2 [sclx8, Sulfonato-calix[8]arene] | 
